Results reported in EPA's ToxRefDB 2.

Assays:
rat [1] = settings: Carcinogenicity, other, Oral, Feed, dose end: 80 week, group: systemic
rat [2] = settings: Carcinogenicity; fischer; Oral; Feed; dose end: 105 week; group: systemic; systemic / in life observation / clinical signs / convulsions + systemic / in life observation / clinical signs / nervousness + systemic / …
mouse [3] = settings: Carcinogenicity, b6c3f1, Oral, Feed, dose end: 80 week, group: systemic
rat [4] = settings: Developmental neurotoxicity study; Oral; Feed; dose end: 90 PND; group: cannot be grouped; systemic / organ weight / liver / relative to body weight + systemic / pathology microscopic / liver / vacuolization
rat [5] = settings: Subchronic oral toxicity in rodents, fischer, Feed, dose end: 8 week, group: systemic
mouse [6] = settings: Subchronic oral toxicity in rodents, b6c3f1, Feed, dose end: 6 week, group: systemic, systemic / in life observation / mortality / mortality
rat [7] = settings: Subchronic oral toxicity in rodents, other, Feed, dose end: 6 week, group: systemic
mouse [8] = settings: Multigenerational reproductive toxicity study; other; Oral; Feed; dose end: 1 generation; group: reproductive; reproductive / offspring survival early / litter size / litter size
mouse [9] = settings: Subchronic oral toxicity in rodents, cd1, Feed, dose end: 13 week, group: systemic
rat [10] = settings: Subchronic oral toxicity in rodents, fischer, Feed, dose end: 13 week, group: systemic, systemic / organ weight / adrenal gland / nos + systemic / organ weight / kidney / nos + systemic / organ weight / liver / nos + systemic / …
mouse [11] = settings: Carcinogenicity, cd1, Oral, Feed, dose end: 18 month, group: systemic
rat [12] = settings: Multigenerational reproductive toxicity study, Other, Oral, Feed, dose end: 2 generation
dog [13] = settings: Subchronic oral toxicity in nonrodent, beagle, Capsule, dose end: 13 week, group: systemic
dog [14] = settings: Chronic toxicity, beagle, Oral, Capsule, dose end: 52 week, group: systemic
[15] = systemic / in life observation / body weight / body weight + systemic / in life observation / clinical signs / [other] + systemic / in life …
[16] = systemic / in life observation / clinical signs / excitation + systemic / in life observation / clinical signs / tremors
[17] = systemic / in life observation / clinical signs / excitation + systemic / in life observation / clinical signs / tremors + systemic / in …
[18] = systemic / pathology microscopic / brain / necrosis + systemic / in life observation / body weight / body weight + systemic / in life …
[19] = systemic / in life observation / body weight / body weight
[20] = systemic / in life observation / body weight / body weight + systemic / in life observation / mortality / mortality
[21] = systemic / pathology microscopic / liver / hypertrophy
[22] = systemic / pathology microscopic / liver / hypertrophy + systemic / clinical chemistry / alanine aminotransferase (alt/sgpt) / alanine …
[23] = systemic / organ weight / liver / relative to body weight
[24] = systemic / organ weight / liver / relative to body weight + systemic / organ weight / liver / absolute
[25] = group: offspring, systemic / in life observation / body weight / offspring (pup) weight + systemic / pathology gross / liver / discolored + systemic / …
[26] = group: parental, systemic / organ weight / liver / relative to body weight
[27] = group: parental, systemic / organ weight / liver / relative to body weight + systemic / in life observation / body weight / body weight + systemic / in life …
[28] = systemic / clinical chemistry / alkaline phosphatase (alp/alk) / alkaline phosphatase (alp/alk) + systemic / pathology gross / liver / …
[29] = systemic / organ weight / prostate / relative to body weight
[30] = systemic / pathology microscopic / liver / pigmentation + systemic / clinical chemistry / alkaline phosphatase (alp/alk) / alkaline …

`ClC1=C(Cl)[C@]2(Cl)[C@@H]3[C@@H]4C[C@@H]([C@H]5O[C@@H]45)[C@@H]3[C@@]1(Cl)C2(Cl)Cl` [Dieldrin] was tested, and the LEL (rat [1]; [15]) was 1.45 mg/kg/day, the NEL (rat [1]; [15]) was less than 1.45 mg/kg/day and the LOAEL (rat [1]; systemic / in life observation / clinical signs / convulsions) was 3.25 mg/kg/day. It also gave an NOAEL (rat [1]; systemic / in life observation / clinical signs / convulsions + systemic / in life observation / body weight / body weight + systemic / in …) of 1.45 mg/kg/day, an LEL (rat [2]) of 2.5 mg/kg/day and an LOAEL (rat [2]) greater than 2.5 mg/kg/day. For the same compound, the NEL (rat [2]) was 0.5 mg/kg/day, the NOAEL (rat [2]) was no less than 2.5 mg/kg/day and the LOAEL (mouse [3]; [16]) was 0.375 mg/kg/day. It also gave an NOAEL (mouse [3]; [16]) of less than 0.375 mg/kg/day, an LEL (mouse [3]; [17]) of 0.375 mg/kg/day and an NEL (mouse [3]; [17]) of less than 0.375 mg/kg/day. The LEL (rat [4]) was 0.00035 mg/kg/day, the LOAEL (rat [4]) was greater than 0.00035 mg/kg/day and the NEL (rat [4]) was less than 0.00035 mg/kg/day. For the same compound, the NOAEL (rat [4]) was no less than 0.00035 mg/kg/day, the LOAEL (rat [5]; systemic / pathology microscopic / brain / necrosis) was 5 mg/kg/day and the LEL (rat [5]; systemic / pathology microscopic / brain / necrosis + systemic / in life observation / body weight / body weight) was 5 mg/kg/day. The NEL (rat [5]; [18]) was 2.5 mg/kg/day, the NOAEL (rat [5]; [18]) was 2.5 mg/kg/day and the LEL (mouse [6]) was 3 mg/kg/day. The LOAEL (mouse [6]) was greater than 6 mg/kg/day, the NEL (mouse [6]) was 1.5 mg/kg/day and the NOAEL (mouse [6]) was no less than 6 mg/kg/day. For the same compound, the LEL (rat [7]; [19]) was 2 mg/kg/day, the NEL (rat [7]; [19]) was less than 2 mg/kg/day and the LOAEL (rat [7]; [20]) was greater than 16 mg/kg/day. For the same compound, the NOAEL (rat [7]; [20]) was no less than 16 mg/kg/day, the LEL (mouse [8]) was 0.75 mg/kg/day and the LOAEL (mouse [8]) was greater than 0.75 mg/kg/day. For the same compound, the NEL (mouse [8]) was less than 0.75 mg/kg/day and the NOAEL (mouse [8]) was no less than 0.75 mg/kg/day.

`CSC(=O)c1c(C(F)F)nc(C(F)(F)F)c(C(=O)SC)c1CC(C)C` [Dithiopyr] showed an LEL (mouse [9]; [21]) of 11.8 mg/kg/day, an LOAEL (mouse [9]; [21]) of 11.8 mg/kg/day and an NEL (mouse [9]; [22]) of 1.16 mg/kg/day. The NOAEL (mouse [9]; [22]) was 1.16 mg/kg/day, the LEL (rat [10]) was 6.62 mg/kg/day and the LOAEL (rat [10]) was 6.62 mg/kg/day. It also gave an NEL (rat [10]) of 0.662 mg/kg/day, an NOAEL (rat [10]) of 0.662 mg/kg/day and an LEL (mouse [11]; [23]) of 3.27 mg/kg/day. The LOAEL (mouse [11]; [23]) was 3.27 mg/kg/day, the NEL (mouse [11]; [24]) was 0.31 mg/kg/day and the NOAEL (mouse [11]; [24]) was 0.31 mg/kg/day. The LEL (rat [12]; [25]) was 19.9 mg/kg/day, the LOAEL (rat [12]; [25]) was greater than 218 mg/kg/day and the NEL (rat [12]; [25]) was 2 mg/kg/day. It also gave an NOAEL (rat [12]; [25]) of no less than 218 mg/kg/day, an LEL (rat [12]; [26]) of 16.4 mg/kg/day and an LOAEL (rat [12]; [26]) of 16.4 mg/kg/day. It also gave an NEL (rat [12]; [27]) of 1.7 mg/kg/day, an NOAEL (rat [12]; [27]) of 1.7 mg/kg/day and an LOAEL (dog [13]; [28]) of 10 mg/kg/day. For the same compound, the NOAEL (dog [13]; [28]) was 1 mg/kg/day, the LEL (dog [13]; [29]) was 1 mg/kg/day and the NEL (dog [13]; [29]) was less than 1 mg/kg/day. The LOAEL (dog [14]; systemic / pathology microscopic / liver / pigmentation) was 5 mg/kg/day, the LEL (dog [14]; [30]) was 5 mg/kg/day and the NEL (dog [14]; [30]) was 0.5 mg/kg/day. It also gave an NOAEL (dog [14]; [30]) of 0.5 mg/kg/day.
